Reference: the supplement of paper PMC12317010
Structures can show the parent of a compound that is named as a salt.

Assay: collision cross section in nitrogen (drift tube, single-field); higher = larger gas-phase ion size
[1] = ion type: [M+H], ion source: ESI, ion mode: Positive
[2] = ion type: [M-H], ion source: ESI, ion mode: Negative
[3] = ion type: [M+Na], ion source: ESI, ion mode: Positive
[4] = ion type: [M+H], ion source: APCI, ion mode: Positive
[5] = ion type: [M+], ion source: APCI, ion mode: Positive
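Note: chemical standards at 10 µM analysed by drift tube IMS-QTOF MS in about 3.95 torr nitrogen, mean of duplicate injections differing ≤1%, mass error below 10 ppm.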

Structure (SMILES)	collision cross section in nitrogen [1] [Å²]	collision cross section in nitrogen [2] [Å²]	collision cross section in nitrogen [3] [Å²]	collision cross section in nitrogen [4] [Å²]	further results
CNC(=O)ON=CC(C)(C)S(C)=O (stereo unspecified) [Aldicarb sulfoxide]	–	–	147.4	–	–
CNC(=O)ON=CC(C)(C)SC [Aldicarb]	–	–	147.5	–	–
C=CCO/N=C(\CCC)C1C(=O)CC(C)(C)C(C(=O)OC)C1=O (stereo unspecified) [Alloxydim sodium]	175.7	177.7	179.4	175.7	–
CCNc1nc(NC(C)C)nc(SC)n1 [Ametryn]	155.5	–	–	155.2	–
CNC(=O)Oc1ccc(N(C)C)c(C)c1 [Aminocarb]	152.2	–	155.8	151.6	–
CCC1(c2ccc(N)cc2)CCC(=O)NC1=O (stereo unspecified) [Aminoglutethimide]	–	158.8	–	–	–
COP(=S)(NC(C)C)Oc1ccc(C)cc1[N+](=O)[O-] (stereo unspecified) [Amiprofos-methyl]	–	164.8	172.4	–	–
Nc1nc[nH]n1 [Amitrole]	–	113.2	–	–	–
CCOP(=S)(S)OCC [Ammonium diethyl dithiophosphate]	–	134.4	–	–	–
O=[N+]([O-])O [Ammonium nitrate]	–	104.5	–	–	–
c1cncc([C@@H]2CCCCN2)c1 [Anabasine]	135.9	–	–	136.4	–
COc1ccc(C(O)(c2cncnc2)C2CC2)cc1 (stereo unspecified) [Ancymidol]	164.2	–	–	164.3	–
C[As+](C)(C)CC(=O)[O-] [Arsenobetaine]	118	–	–	–	–
COc1ccc(CCN2CCC(Nc3nc4ccccc4n3Cc3ccc(F)cc3)CC2)cc1 [Astemizole]	210.8	227.8	213.2	–	–
COC(=O)NS(=O)(=O)c1ccc(N)cc1 [Asulam]	–	150.4	–	–	–
CCNc1nc(NC(C)C)nc(OC)n1 [Atraton]	150.5	–	168.1	–	–
CCNc1nc(Cl)nc(NC(C)C)n1 [Atrazine]	149.5	–	–	149	–
COP(=O)(OC)SCn1c(=O)oc2cc(Cl)cnc21 [Azamethiphos]	161.5	–	171.2	160.6	–
CCOP(=S)(OCC)SCn1nnc2ccccc2c1=O [Azinphos-ethyl]	–	–	177.9	–	–
CSc1nc(N=[N+]=[N-])nc(NC(C)C)n1 [Aziprotryne]	148.9	–	–	149.1	–
c1ccc(N=Nc2ccccc2)cc1 [Azobenzene]	–	–	–	139.5	–
CO/C=C(/C(=O)OC)c1ccccc1Oc1cc(Oc2ccccc2C#N)ncn1 [Azoxystrobin]	195	–	199	196.5	–
CCNc1ccc(C(=C2C=CC(=[N+](CC)CC)C=C2)c2ccc(N(CC)CC)cc2)c2ccccc12 [Basic Blue 7]	–	–	–	–	collision cross section in nitrogen (ion source: APCI, ion mode: Positive, ion type: [M]+ (permanent cation)): 241.9 Å²; collision cross section in nitrogen (ion source: ESI, ion mode: Positive, ion type: [M]+ (permanent cation)): 240.6 Å²
CNC(=O)Oc1cccc2c1OC(C)(C)O2 [Bendiocarb]	–	–	157	–	–
CCCCN(CC)c1c([N+](=O)[O-])cc(C(F)(F)F)cc1[N+](=O)[O-] [Benfluralin]	–	168.5	–	–	–
CCOC(=O)CCN(SN(C)C(=O)Oc1cccc2c1OC(C)(C)C2)C(C)C [Benfuracarb]	197.3	–	201.5	197.3	–
O=C(Nc1ccccc1)c1ccccc1I [Benodanil]	146.3	155.4	161.1	146.6	–
COC(=O)c1ccccc1CS(=O)(=O)NC(=O)Nc1nc(OC)cc(OC)n1 [Bensulfuron-methyl]	–	–	197.8	–	–
CC(C)N1C(=O)c2ccccc2NS1(=O)=O [Bentazone]	–	146.9	–	–	–

Now from value to molecule, other results behind:

collision cross section in nitrogen [1] [Å²]	collision cross section in nitrogen [2] [Å²]	collision cross section in nitrogen [3] [Å²]	collision cross section in nitrogen [4] [Å²]	Structure (SMILES)	further results
191.7	195.6	–	–	Nc1ccc2cc(S(=O)(=O)O)cc(O)c2c1N=Nc1ccccc1C(F)(F)F [Acid Red 337]	–
–	–	145.9	–	C=CC(=O)OCCOC(=O)CCC(=O)O [Acryloyloxyethyl succinate]	–
143.7	–	143.5	–	CC(=O)Nc1ccc(CC(=O)O)cc1 [Actarit]	–
125.2	120.9	–	124.4	Nc1ncnc2[nH]cnc12 [Adenine]	–
166	–	–	166.9	CCCSc1ccc2[nH]c(NC(=O)OC)nc2c1 [Albendazole]	collision cross section in nitrogen [5]: 160.4 Å²
–	157.1	–	–	O=C1c2cccc(O)c2C(=O)c2c(O)cc(CO)cc21 [Aloe-emodin]	–
–	199.5	–	–	Nc1nc(N)c2nc(CNc3ccc(C(=O)N[C@@H](CCC(=O)O)C(=O)O)cc3)cnc2n1 [Aminopterin]	–
224.2	–	231.6	223.8	CCCCc1oc2ccccc2c1C(=O)c1cc(I)c(OCCN(CC)CC)c(I)c1 [Amiodarone hydrochloride]	collision cross section in nitrogen [5]: 224 Å²
167.5	–	175.7	166.8	CN(C)CCC=C1c2ccccc2CCc2ccccc21 [Amitriptyline hydrochloride]	–
286.8	282.6	294.4	–	CC1(C)[C@@H](O[C@H]2O[C@H](C(=O)O)[C@@H](O)[C@H](O)[C@H]2O[C@@H]2O[C@H](C(=O)O)[C@@H](O)[C@H](O)[C@H]2O)CC[C@]2(C)[C@H]3C(=O)C=C4[C@@H]5C[C@@](C)(C(=O)O)CC[C@]5(C)CC[C@@]4(C)[C@]3(C)CC[C@@H]12 [Ammonium glycyrrhizinate trihydrate]	–
172.6	–	–	172.4	Clc1ccc2c(c1)C(N1CCNCC1)=Nc1ccccc1O2 [Amoxapine]	–
143.3	140.7	–	142.7	Nc1cc(-c2ccncc2)c[nH]c1=O [Amrinone]	–
183.5	178.4	188.9	–	CC(C)(C#N)c1cc(Cn2cncn2)cc(C(C)(C)C#N)c1 [Anastrozole]	–
263.3	252.1	259.8	263.2	CC(C)(C)c1cc(CCC(=O)NCCCCCCNC(=O)CCc2cc(C(C)(C)C)c(O)c(C(C)(C)C)c2)cc(C(C)(C)C)c1O [Antioxidant 1098]	collision cross section in nitrogen [5]: 271.7 Å²
260.4	235.7	238.6	–	CCCCN1C(=O)[C@@H]([C@H](O)C2CCCCC2)NC(=O)C12CCN(Cc1ccc(Oc3ccc(C(=O)O)cc3)cc1)CC2 [Aplaviroc hydrochloride]	–
162.5	–	–	162.3	CN1CCc2cccc3c2[C@H]1Cc1ccc(O)c(O)c1-3 [Apomorphine hydrochloride]	–
217	207.8	221.7	–	C[C@@H]1CCN(C(=O)[C@H](CCCNC(=N)N)NS(=O)(=O)c2cccc3c2NC[C@H](C)C3)[C@@H](C(=O)O)C1 [Argatroban monohydrate]	–
216.7	207.5	221.2	–	CC1CNc2c(cccc2S(=O)(=O)N[C@@H](CCCNC(=N)N)C(=O)N2CC[C@@H](C)C[C@@H]2C(=O)O)C1 (stereo partly specified) [Argatroban]	–
–	202.4	–	–	CCCCCCCCCCCCCCCC(=O)OC[C@H](O)[C@H]1OC(=O)C(O)=C1O [Ascorbyl palmitate]	–
157.8	–	164.2	157.9	CC(C)NCC(O)COc1ccc(CC(N)=O)cc1 (stereo unspecified) [Atenolol]	–
230.3	228.6	232.2	229.8	CC(C)c1c(C(=O)Nc2ccccc2)c(-c2ccccc2)c(-c2ccc(F)cc2)n1CC[C@@H](O)C[C@@H](O)CC(=O)O [Atorvastatin calcium]	collision cross section in nitrogen [5]: 224.3 Å²
229.7	228.4	231.4	229.1	CC(C)c1c(C(=O)Nc2ccccc2)c(-c2ccccc2)c(-c2ccc(F)cc2)n1CC[C@@H](O)C[C@@H](O)CC(=O)O [Atorvastatin]	–
169.8	–	–	168.3	CN(C)c1ccc(C(=N)c2ccc(N(C)C)cc2)cc1 [Auramine hydrochloride]	–
148.8	–	–	148.2	O=C1CCCCCCCCCCCN1 [Azacyclotridecan-2-one]	–
–	155.5	172.4	158.6	Cn1cnc([N+](=O)[O-])c1Sc1ncnc2nc[nH]c12 [Azathioprine]	–
–	211.8	–	–	O=S(=O)(O)c1ccc(N=Nc2cc(S(=O)(=O)O)c3ccccc3c2O)c2ccccc12 [Azorubine]	–
186.1	183.9	201.9	–	O=S(=O)(c1ccc(OCc2ccccc2)cc1)c1ccccc1O [BPS-MPE4]	–
–	137.4	–	–	CCCCC(CC)C(=O)O (stereo unspecified) [Barium bis(2-ethylhexanoate)]	–
–	–	165.4	–	CCOC(=O)Cn1c(=O)sc2cccc(Cl)c21 [Benazolin-ethyl]	–
